In ChEMBL document CHEMBL1151200, “Comparison of fascaplysin and related alkaloids: a study of structures, cytotoxicities, and sources” (J Nat Prod, 2004):

Experiments:
CCRF-CEM [1] = test: Cytotoxicity against human CEM cells at 84 ug/disk by disk diffusion soft agar colony formation assay; type: functional
L1210 [2] = test: Cytotoxicity against mouse L1210 cells at 84 ug/disk by disk diffusion soft agar colony formation assay; type: functional
[3] = Cytotoxicity against human H116 cells at 84 ug/disk by disk diffusion soft agar colony formation assay; type: functional
[4] = Cytotoxicity against mouse CFU-GM cells at 84 ug/disk by disk diffusion soft agar colony formation assay; type: cell-based
[5] = Cytotoxicity against human H125 cells at 84 ug/disk by disk diffusion soft agar colony formation assay; type: functional
MC-38 [6] = test: Cytotoxicity against mouse C38 cells at 84 ug/disk by disk diffusion soft agar colony formation assay; type: functional
HCT-15 = test: Antitumor activity against human HCT15 cells; type: functional, cell-based
T47D = test: Antitumor activity against human T47D cells; type: functional, cell-based
RPMI-8226 = test: Antitumor activity against human RPMI8226 cells; type: functional, cell-based
A549 = test: Antitumor activity against human A549/ATCC cells; type: functional, cell-based
EKVX = test: Antitumor activity against human EKVX cells; type: functional, cell-based
HL-60(TB) = test: Antitumor activity against human HL-60(TB) cells; type: functional, cell-based
K562 = test: Antitumor activity against human K562 cells; type: functional, cell-based
OVCAR-4 = test: Antitumor activity against human OVCAR4 cells; type: functional, cell-based
MDA-N = test: Antitumor activity against human MDA-N cells; type: functional, cell-based
OVCAR-8 = test: Antitumor activity against human OVCAR8 cells; type: functional, cell-based
IGROV-1 = test: Antitumor activity against human IGROV1 cells; type: functional, cell-based
COLO 205 = test: Antitumor activity against human COLO205 cells; type: functional, cell-based
Malme-3M = test: Antitumor activity against human MALME-3M cells; type: functional, cell-based
SF-539 = test: Antitumor activity against human SF539 cells; type: functional, cell-based
SF-295 = test: Antitumor activity against human SF295 cells; type: functional, cell-based
HCC 2998 = test: Antitumor activity against human HCC2998 cells; type: functional, cell-based
OVCAR-3 = test: Antitumor activity against human OVCAR-3 cells; type: functional, cell-based
TK-10 = test: Antitumor activity against human TK10 cells; type: functional, cell-based
MCF7 [7] = test: Antitumor activity against […] human MCF7 cells; type: functional, cell-based
NCI-H522 = test: Antitumor activity against human NCI-H522 cells; type: functional, cell-based
SW-620 = test: Antitumor activity against human SW620 cells; type: functional, cell-based
NCI-H226 = test: Antitumor activity against human NCI-H226 cells; type: functional, cell-based
HT-29 = test: Antitumor activity against human HT-29 cells; type: functional, cell-based
HCT-116 = test: Antitumor activity against human HCT116 cells; type: functional, cell-based
BT-549 = test: Antitumor activity against human BT549 cells; type: functional, cell-based
SN12C = test: Antitumor activity against human SN12C cells; type: functional, cell-based
U-251 = test: Antitumor activity against human U251 cells; type: functional, cell-based
SK-MEL-28 = test: Antitumor activity against human SK-MEL-28 cells; type: functional, cell-based
OVCAR-5 = test: Antitumor activity against human OVCAR5 cells; type: functional, cell-based
SK-OV-3 = test: Antitumor activity against human SKOV3 cells; type: functional, cell-based
HOP-92 = test: Antitumor activity against human HOP92 cells; type: functional, cell-based
MCF7 [8] = test: Antitumor activity against human MCF7 cells; type: functional, cell-based
KM12 = test: Antitumor activity against human KM12 cells; type: functional, cell-based
UACC-257 = test: Antitumor activity against human UACC257 cells; type: functional, cell-based
CCRF-CEM [9] = test: Antitumor activity against human CCRF-CEM cells; type: functional, cell-based
MOLT-4 = test: Antitumor activity against human MOLT4 cells; type: functional, cell-based
SNB-75 = test: Antitumor activity against human SNB75 cells; type: functional, cell-based
DU-145 = test: Antitumor activity against human DU145 cells; type: functional, cell-based
ACHN = test: Antitumor activity against human ACHN cells; type: functional, cell-based
MDA-MB-435 = test: Antitumor activity against human MDA-MB-435 cells; type: functional, cell-based
HOP-62 = test: Antitumor activity against human HOP62 cells; type: functional, cell-based
SR = test: Antitumor activity against human SR cells; type: functional, cell-based
NCI-H23 = test: Antitumor activity against human NCI-H23 cells; type: functional, cell-based
SNB-19 = test: Antitumor activity against human SNB19 cells; type: functional, cell-based
[10] = Antitumor activity against human Hs 578T cells; type: functional, cell-based
PC-3 = test: Antitumor activity against human PC3 cells; type: functional, cell-based
CAKI-1 = test: Antitumor activity against human Caki1 cells; type: functional, cell-based
NCI-H460 = test: Antitumor activity against human NCI-H460 cells; type: functional, cell-based
M14 = test: Antitumor activity against human M14 cells; type: functional, cell-based
UACC-62 = test: Antitumor activity against human UACC62 cells; type: functional, cell-based
MDA-MB-231 = test: Antitumor activity against human MDA-MB-231 cells; type: functional, cell-based
SK-MEL-5 = test: Antitumor activity against human SK-MEL-5 cells; type: functional, cell-based
[11] = Antitumor activity against human 786-O cells; type: functional, cell-based; conditions: 786-0
SF-268 = test: Antitumor activity against human SF268 cells; type: functional, cell-based
LOX IMVI = test: Antitumor activity against human LOXIMVI cells; type: functional, cell-based
UO-31 = test: Antitumor activity against human UO31 cells; type: functional, cell-based
RXF 393 = test: Antitumor activity against human RXF393 cells; type: functional, cell-based
NCI-H322M = test: Antitumor activity against human NCI-H322M cells; type: functional, cell-based
[12] = Cytotoxicity against human H125 cells at 64 ug/disk by disk diffusion soft agar colony formation assay; type: functional
L1210 [13] = test: Cytotoxicity against mouse L1210 cells at 64 ug/disk by disk diffusion soft agar colony formation assay; type: functional
[14] = Cytotoxicity against human H116 cells at 64 ug/disk by disk diffusion soft agar colony formation assay; type: functional
MC-38 [15] = test: Cytotoxicity against mouse C38 cells at 64 ug/disk by disk diffusion soft agar colony formation assay; type: functional
CCRF-CEM [16] = test: Cytotoxicity against human CEM cells at 64 ug/disk by disk diffusion soft agar colony formation assay; type: functional
[17] = Cytotoxicity against human H125 cells at 18 ug/disk by disk diffusion soft agar colony formation assay; type: functional
CCRF-CEM [18] = test: Cytotoxicity against human CEM cells at 18 ug/disk by disk diffusion soft agar colony formation assay; type: functional
MC-38 [19] = test: Cytotoxicity against mouse C38 cells at 18 ug/disk by disk diffusion soft agar colony formation assay; type: functional
[20] = Cytotoxicity against human H116 cells at 18 ug/disk by disk diffusion soft agar colony formation assay; type: functional
L1210 [21] = test: Cytotoxicity against mouse L1210 cells at 18 ug/disk by disk diffusion soft agar colony formation assay; type: functional
[22] = Cytotoxicity against mouse CFU-GM cells at 18 ug/disk by disk diffusion soft agar colony formation assay; type: cell-based

`COC(=O)c1ccc(Br)cc1-[n+]1ccc2c(c1)[nH]c1cc(Br)ccc12.[Cl-]` gave an Activity (CCRF-CEM [1]) of 300 Zone units, an Activity (L1210 [2]) of 450 Zone units and an Activity [3] of 300 Zone units. For the same compound, the Activity [4] was 400 Zone units, the Activity [5] was 500 Zone units and the Activity (MC-38 [6]) was 350 Zone units.
In the case of `CC1=C(CC/C(C)=C/CC/C(C)=C/CCC(CC(=O)O)C(=O)[O-])C(C)(C)CCC1.O=C1c2ccccc2-[n+]2ccc3c([nH]c4ccccc43)c21` (stereo not given) [FASCAPLYSIN A], the IC50 (HCT-15) is reported as 5.8 µM, the IC50 (T47D) is reported as 6.6 µM and the IC50 (RPMI-8226) is reported as greater than 10 µM. The IC50 (A549) was 7.6 µM, the IC50 (EKVX) was 5.2 µM and the IC50 (HL-60(TB)) was greater than 10 µM. It also gave an IC50 (K562) greater than 10 µM, an IC50 (OVCAR-4) of 4.5 µM and an IC50 (MDA-N) of 0.58 µM. For the same compound, the IC50 (OVCAR-8) was 5.3 µM, the IC50 (IGROV-1) was 1.7 µM and the IC50 (COLO 205) was 0.83 µM. The IC50 (Malme-3M) was 0.54 µM, the IC50 (SF-539) was 2.2 µM and the IC50 (SF-295) was 5.2 µM. For the same compound, the IC50 (HCC 2998) was 3.8 µM, the IC50 (OVCAR-3) was 3.1 µM and the IC50 (TK-10) was greater than 10 µM. It also gave an IC50 (MCF7 [7]) greater than 10 µM, an IC50 (NCI-H522) of 6.3 µM and an IC50 (SW-620) of 3.9 µM. The IC50 (NCI-H226) was 8.3 µM, the IC50 (HT-29) was 1.4 µM and the IC50 (HCT-116) was 1.6 µM. The IC50 (BT-549) was 5.1 µM, the IC50 (SN12C) was 3.2 µM and the IC50 (U-251) was 4.1 µM. The IC50 (SK-MEL-28) was 3.9 µM, the IC50 (OVCAR-5) was 5.8 µM and the IC50 (SK-OV-3) was 7.7 µM. It also gave an IC50 (HOP-92) of 1 µM, an IC50 (MCF7 [8]) of 5 µM and an IC50 (KM12) of 7.3 µM. It also gave an IC50 (UACC-257) of 3.8 µM, an IC50 (CCRF-CEM [9]) greater than 10 µM and an IC50 (MOLT-4) greater than 10 µM. It also gave an IC50 (SNB-75) of 5.2 µM, an IC50 (DU-145) of 5.6 µM and an IC50 (ACHN) of 5.5 µM. It also gave an IC50 (MDA-MB-435) of 0.57 µM, an IC50 (HOP-62) of 5.1 µM and an IC50 (SR) greater than 10 µM. The IC50 (NCI-H23) was 5.1 µM, the IC50 (SNB-19) was 5.4 µM and the IC50 [10] was greater than 10 µM. It also gave an IC50 (PC-3) of 5.4 µM, an IC50 (CAKI-1) of 7.3 µM and an IC50 (NCI-H460) of 6.4 µM. The IC50 (M14) was 4.2 µM, the IC50 (UACC-62) was 3.2 µM and the IC50 (MDA-MB-231) was 6.8 µM. It also gave an IC50 (SK-MEL-5) of 0.53 µM, an IC50 [11] of 5.1 µM and an IC50 (SF-268) of 5.7 µM. The IC50 (LOX IMVI) was 6.3 µM, the IC50 (UO-31) was 5.6 µM and the IC50 (RXF 393) was 3.5 µM. The IC50 (NCI-H322M) was 4.3 µM.
For `O=C(O)c1ccccc1-[n+]1ccc2c(c1)[nH]c1ccccc12.[Cl-]` [RETICULATATE], the Activity [12] was 500 Zone units, the Activity (L1210 [13]) was 650 Zone units and the Activity [14] was 650 Zone units. For the same compound, the Activity (MC-38 [15]) was 700 Zone units and the Activity (CCRF-CEM [16]) was 350 Zone units.
Work on `COC(=O)c1ccccc1-[n+]1ccc2c(c1)[nH]c1ccccc12.[Cl-]` [RETICULATINE] yielded an Activity [17] of 600 Zone units, an Activity (CCRF-CEM [18]) of 500 Zone units and an Activity (MC-38 [19]) of 600 Zone units. The Activity [20] was 500 Zone units, the Activity (L1210 [21]) was 450 Zone units and the Activity [22] was 350 Zone units.
`Oc1ccccc1-[n+]1ccc2c(c1)[nH]c1ccccc12.[Cl-]` [RETICULATOL] showed an Activity [12] of 400 Zone units, an Activity (L1210 [13]) of 200 Zone units and an Activity [14] of 100 Zone units. For the same compound, the Activity (MC-38 [15]) was 200 Zone units and the Activity (CCRF-CEM [16]) was greater than 1000 Zone units.
